Read-outs that look alike come from different tables or passages of the source.
Conditions: mouse, in vivo
Description: In vivo toxicity of the polymer of Formula II was assayed in mice. Groups of 5 animals were dosed twice daily for 5 days by oral gavage at a dose of 10, 100, or 500 mg/kg body weight. Animals were assessed daily, and deaths were recorded. The dose at which ½ the animals died was considered the LD50.

Substance: Poly(4,4′-trimethylenebis(1-methylpiperidinium)-alt-1,8-octane) [Formula II]
- tolerability in 5-day oral toxicity study (10 mg/kg/day): well tolerated
- tolerability in 5-day oral toxicity study (100 mg/kg/day): moderate toxicity was evident

Reference: patent publication US6955806B2, “Ionene polymers and their use as antimicrobial agents” (Genzyme Corporation, priority 2001, dated 2005)
